Laboratory results: ChEMBL document CHEMBL1201862, “PubChem BioAssay data set” (2004)
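Step 1: Grow cells in 96-well plates. Step 2: Expose to compound for 48 hours at 5 concentrations. Step 3: Interpolate endpoints linearly; if unreached, use highest concentration. GI50 marks 50% less growth.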 Calls of active or inactive are those of the source. Cut-off read from the data, not from the text of the source: active = GI50 up to about 1.1 µM and inactive = higher.

Key:
Assay in all cases: NCI-60 cell line screen, 48 h
A498 = system: A498
A549 = system: A549
DU-145 = system: DU-145
HCC 2998 = system: HCC 2998
HCT-116 = system: HCT-116
HOP-92 = system: HOP-92
Hs-578T = system: Hs-578T
MDA-MB-231 = system: MDA-MB-231
MOLT-4 = system: MOLT-4
NCI-H522 = system: NCI-H522
NCI/ADR-RES = system: NCI/ADR-RES
RXF 393 = system: RXF 393
SF-295 = system: SF-295
SF-539 = system: SF-539
SK-MEL-28 = system: SK-MEL-28
SNB-19 = system: SNB-19
SR = system: SR
U-251 = system: U-251
HT-29 = system: HT-29
NCI-H460 = system: NCI-H460

Measured: GI50

Cc1nc2c(sc3nc4ccccc4n32)c(=O)[nH]1
inactive: A498 > 100 µM | A549 > 100 µM | DU-145 > 100 µM | HCC 2998 > 100 µM | HCT-116 > 100 µM | HOP-92 > 100 µM | Hs-578T > 100 µM | MDA-MB-231 > 100 µM | MOLT-4 > 100 µM | NCI-H522 > 100 µM | NCI/ADR-RES > 100 µM | RXF 393 > 100 µM | SF-295 > 100 µM | SF-539 > 100 µM | SK-MEL-28 > 100 µM | SNB-19 > 100 µM | SR > 100 µM | U-251 > 100 µM

CN(C)CCCNc1c2c(=O)n(C)c(=O)nc-2n(C)c2ccccc12
inactive: A498 9.27 µM | A549 4.74 µM | DU-145 6.41 µM | HCT-116 3.69 µM | HOP-92 17 µM | HT-29 4.26 µM | Hs-578T 10.1 µM | MDA-MB-231 6 µM | MOLT-4 3.01 µM | NCI-H460 2.85 µM | NCI-H522 2.45 µM | NCI/ADR-RES 67 µM | RXF 393 7.8 µM | SF-295 6.43 µM | SF-539 6.73 µM | SK-MEL-28 10.4 µM | SNB-19 6.56 µM | SR 3 µM | U-251 3.26 µM

N#CC1(C#N)C(C#N)(C#N)C1(C#N)C(N)=O
inactive: A498 > 100 µM | A549 > 100 µM | DU-145 > 100 µM | HCC 2998 > 100 µM | HCT-116 > 100 µM | HOP-92 > 100 µM | HT-29 > 100 µM | Hs-578T > 100 µM | MDA-MB-231 > 100 µM | MOLT-4 > 100 µM | NCI-H460 > 100 µM | NCI-H522 > 100 µM | NCI/ADR-RES > 100 µM | RXF 393 > 100 µM | SF-295 > 100 µM | SK-MEL-28 > 100 µM | SNB-19 > 100 µM | SR > 100 µM | U-251 > 100 µM

Oc1ccc(Cl)cc1Sc1cc(Cl)ccc1O [FENTICLOR]
inactive: A498 11.2 µM | A549 26.8 µM | DU-145 14.2 µM | HCT-116 7.11 µM | HOP-92 3.15 µM | HT-29 18 µM | Hs-578T 4.98 µM | MDA-MB-231 15 µM | MOLT-4 7.53 µM | NCI-H460 10.7 µM | NCI-H522 3.1 µM | NCI/ADR-RES 12.5 µM | RXF 393 14.2 µM | SF-295 13.5 µM | SF-539 17.7 µM | SK-MEL-28 11.8 µM | SNB-19 12.9 µM | SR 17.1 µM | U-251 8.53 µM

C[C@@]12[C@H]3CC[C@@H]1[C@H](O)C(=O)N2CC3
inactive: A498 > 100 µM | A549 > 100 µM | DU-145 > 100 µM | HCC 2998 > 100 µM | HOP-92 > 100 µM | HT-29 > 100 µM | Hs-578T > 100 µM | MDA-MB-231 > 100 µM | MOLT-4 > 100 µM | NCI-H460 > 100 µM | NCI-H522 > 100 µM | NCI/ADR-RES > 100 µM | RXF 393 > 100 µM | SF-295 > 100 µM | SF-539 > 100 µM | SK-MEL-28 > 100 µM | SNB-19 > 100 µM | SR > 100 µM | U-251 > 100 µM

CC(=O)CCN1CC2CN=NC2(C#N)C1 (stereo not drawn)
inactive: A498 > 100 µM | A549 > 100 µM | DU-145 > 100 µM | HCC 2998 > 100 µM | HCT-116 34 µM | HOP-92 22.3 µM | HT-29 > 100 µM | Hs-578T 1.65 µM | MDA-MB-231 > 100 µM | MOLT-4 14.7 µM | NCI-H460 > 100 µM | NCI-H522 1.79 µM | NCI/ADR-RES > 100 µM | RXF 393 94.4 µM | SF-295 > 100 µM | SK-MEL-28 > 100 µM | SNB-19 > 100 µM | SR > 100 µM | U-251 > 100 µM
